In this experiment the target is T1, porcine pancreatic α-amylase (Sus scrofa, UniProt P00690).
T1 construct: gene AMY2
T1 sequence (P00690 16-511): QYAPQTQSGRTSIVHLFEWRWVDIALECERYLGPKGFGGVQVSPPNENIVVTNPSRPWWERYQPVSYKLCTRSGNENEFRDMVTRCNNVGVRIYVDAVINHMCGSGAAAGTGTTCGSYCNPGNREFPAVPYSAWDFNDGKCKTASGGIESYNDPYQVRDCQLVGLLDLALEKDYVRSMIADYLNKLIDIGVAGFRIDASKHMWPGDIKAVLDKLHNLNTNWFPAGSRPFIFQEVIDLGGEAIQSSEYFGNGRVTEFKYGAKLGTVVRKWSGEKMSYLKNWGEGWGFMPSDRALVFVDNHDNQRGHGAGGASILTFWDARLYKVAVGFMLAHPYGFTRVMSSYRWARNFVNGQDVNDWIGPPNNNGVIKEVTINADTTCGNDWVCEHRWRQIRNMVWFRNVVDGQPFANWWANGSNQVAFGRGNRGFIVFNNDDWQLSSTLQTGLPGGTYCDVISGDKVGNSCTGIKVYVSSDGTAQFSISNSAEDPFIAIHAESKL
Kind of experiment: fluorescence DQ starch hydrolysis assay (EnzChek Ultra Amylase kit). It counts as biochemical.

Structures are written as SMILES.

Consider `CC(C)=CCc1c(O)cc2oc3c(/C=C\C(C)(C)O)c(O)c(O)c(CC=C(C)C)c3c(=O)c2c1O` [compound 5, mangostanaxanthone VI], for which the IC50 came to 16.1 µM. This counts as double-digit micromolar.
The result for `O=C(c1cc(O)cc(O)c1O)c1c(O)cc(O)cc1O` [compound 6, garcimangophenone A] reads 12.2 µM; that for `O=C(c1cc(O)ccc1O)c1c(O)cc(O)cc1O[C@@H]1O[C@H](CO)[C@@H](O)[C@H](O)[C@H]1O` [compound 7, garcimangophenone B], 9.3 µM.

For the origin of these results see paper PMC8950244, “New Alpha-Amylase Inhibitory Metabolites from Pericarps of Garcinia mangostana” (Life, 2022).
